Where two headings read alike, the source gives them in different places. One block for each molecule: values may come before it.
Experiments:
[1] = target: T1, Purified recombinant sACt protein (Rattus norvegicus, UniProt Q9Z286); assay: In vitro adenylyl cyclase assay with purified recombinant sACt; assay type: biochemical; conditions: for % Basal (adenylyl cyclase activity relative to activity in the absence of any salts): salts at 50 mM
T1 construct: sACt, amino acids 1-469, plus a C-terminal Hexahistidine tag; Hexahistidine (C); made in house; host or cells: insect HiFive cells (baculovirus, Bac-to-Bac)
T1 sequence (Q9Z286 1-469): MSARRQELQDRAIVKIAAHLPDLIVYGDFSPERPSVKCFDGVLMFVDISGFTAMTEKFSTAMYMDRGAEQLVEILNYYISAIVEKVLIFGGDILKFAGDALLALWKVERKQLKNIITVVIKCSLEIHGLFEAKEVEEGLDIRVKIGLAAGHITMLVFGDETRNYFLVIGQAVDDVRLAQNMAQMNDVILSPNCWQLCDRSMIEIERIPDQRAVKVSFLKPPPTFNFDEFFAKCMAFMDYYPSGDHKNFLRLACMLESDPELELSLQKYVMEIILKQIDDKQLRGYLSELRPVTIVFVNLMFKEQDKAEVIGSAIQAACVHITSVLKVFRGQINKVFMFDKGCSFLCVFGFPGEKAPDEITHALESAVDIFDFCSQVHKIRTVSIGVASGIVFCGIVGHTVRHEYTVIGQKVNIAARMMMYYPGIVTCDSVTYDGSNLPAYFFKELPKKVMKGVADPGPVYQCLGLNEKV
Method: (§1) The cell lines were starved for bicarbonate (grown in HEPES-bufferred, NaHCO3-free D-MEM under ambient CO2) for 24 hours. Cellular cAMP accumulation and in vitro adenylyl cyclase activity in the presence of [a^32P] ATP and MnCl2 or MgCl2 were assayed. In vitro adenylyl cyclase assays were performed at pH 7.5 in Tris-buffered solutions.
Kinetic parameters were determined using KinetAsyst II (IntelliKinetics).

soluble adenylyl cyclase = conditions: cited from earlier work
sAC [2] = assay: Adenylyl cyclase activity in anti-sAC immunoprecipitates from rat testis cytosol; assay type: biochemical; conditions: 40 mM NaHCO3 or 100 μM Forskolin
Method: Rat testis were tested for sAC activity by immunoassay. Immunoprecipitates from rat testis cytosol were tested using either pre-immune serum or α-sAC antisera. […]. […]. Data in FIG. 4b are presented as pmol of cAMP formed over 20 minutes, and values represent averages of duplicate determinations with standard deviations indicated.

sACfl = sACfl (Rattus norvegicus, UniProt Q9Z286)
Method: as §1

[3] = test system: HEK293/V cells, which express endogenous tmACs; conditions: for Cellular cAMP accumulation in HEK293/V: vector transfected cells
Method: as §1
Among mammalian adenylyl cyclases, sAC appears to be the only form regulated by bicarbonate ions.

Spirulina platensis CyaC [4] = target: T2, Spirulina platensis CyaC (Limnospira platensis, UniProt O32393); conditions: 0-60 mM NaHCO3, 100 μM ATP, 5 mM MnCl2
Spirulina platensis CyaC [5] = target: T2, Spirulina platensis CyaC; assay: biochemical
[6] = target: T3, full-length and truncated forms of sAC (Rattus norvegicus, UniProt Q9Z286); assay: Adenylyl cyclase assay in whole-cell sonicates from sAC-transfected HEK293 cells; assay type: biochemical; conditions: both full-length and truncated forms
T3 construct: we heterologously expressed the full-length cDNA in HEK293 cells; expressed in transfected cells; host or cells: HEK293, transient, pBK-CMV
Description: Heterologous Expression. To confirm that the gene we isolated encoded an adenylyl cyclase, we heterologously expressed the full-length cDNA in HEK293 cells. The full-length and truncated sAC cDNAs were expressed from the library vector (pBK-CMV) under the control of the cytomegalovirus promoter after deletion of the intervening bacterial promoter sequences (as an NheI-SpeI fragment). The truncated sAC cDNA (sACt) represented a library clone that was missing an exon. The resultant protein shifted the reading frame after valine 469 (FIG. 1; underline), introducing two incorrect amino acids (serine and cysteine) followed by a stop codon. Expression constructs were transiently introduced into HEK293 by lipofectamine—mediated transfection (Life Technologies, Grand Island, N.Y.). One or two days after transfection, cells were harvested, resuspended in lysis buffer (50 mM Tris-HCl, pH 7.5/1 mM EDTA/1 mM DTT/0.1 mg/ml Leupeptin/1 mM phenylmethylsulfonyl fluoride) and disrupted by microtip probe sonication on ice. Whole-cell sonicates were ultramicrocentrifuged at >100,000×g for 10 minutes. Supernatants were cleared by a second centrifugation to yield ‘cytosolic’ extracts. Pellets were resuspended in lysis buffer by passage through a 27.5-gauge needle to generate ‘particulate fraction. […]

sAC [7] = conditions: read-out: Km of sAC for substrate ATP; cited from earlier work
tmACs = conditions: read-out: Km of tmACs for substrate ATP; cited from earlier work
sAC [8] = assay: Soluble adenylyl cyclase activity in cytosolic extracts from rat testis; conditions: read-out: Km for ATP; in the presence of MnCl2
truncated form of sAC = target: T4, truncated form of sAC (Rattus norvegicus, UniProt Q9Z286); assay: P site ligand test on truncated sAC; assay type: biochemical
T4 construct: sACt, amino acids 1-469
T4 sequence (Q9Z286 1-469): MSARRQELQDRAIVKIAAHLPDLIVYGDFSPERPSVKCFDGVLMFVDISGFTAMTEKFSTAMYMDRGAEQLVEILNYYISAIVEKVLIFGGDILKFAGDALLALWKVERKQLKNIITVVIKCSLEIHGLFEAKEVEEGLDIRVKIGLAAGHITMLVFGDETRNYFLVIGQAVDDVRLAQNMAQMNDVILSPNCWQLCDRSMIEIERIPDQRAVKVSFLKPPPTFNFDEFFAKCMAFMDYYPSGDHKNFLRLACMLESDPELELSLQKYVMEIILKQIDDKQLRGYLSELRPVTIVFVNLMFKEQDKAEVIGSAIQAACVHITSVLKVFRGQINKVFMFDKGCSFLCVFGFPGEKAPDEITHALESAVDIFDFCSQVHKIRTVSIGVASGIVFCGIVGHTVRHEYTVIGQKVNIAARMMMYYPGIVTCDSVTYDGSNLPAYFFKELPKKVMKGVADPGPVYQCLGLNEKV
Description: (3) P site ligands and inhibitors of other ATP-utilizing enzymes.

sAC [9] = assay: Ecdysone inducible sAC expression in transiently transfected NIH3T3 cells; assay type: cell-based; conditions: transient transfection
Description: The commercially available (Invitrogen) ecdysone inducible system (No, D. et al., PNAS, 1996, 93:3346-3351) is based on an insect hormone regulated transcriptional activator, the ecdysone receptor (EcR). This system takes advantage of the specificity of EcR for its own response element, and the lack of any cross-reactivity by any mammalian transcription factor. We stably introduced both the EcR and its requisite partner, Retinoid X Receptor (RXR) into NIH3T3 cells. Additionally, to confirm the efficacy of this expression system, we performed pilot experiments with 3T3 cells transiently transfected with both plasmids. […] This induction was overcome by co-expression of sAC antisense (αsAA). The sequence was the entire sAC truncated (sAC trunc) sequence cloned in reverse orientation with respect to the promoter. The coding sequence for sAC trunc was approximately 1 through 1710 and the antisense was nucleotides 1710 through 1. For the antisense experiment, we transiently transfected three plasmids into NIH3T3 cells: 1) Ecdysone receptor/RXR expression plasmid; 2) sAC trunc expression plasmid (driven by ecdysone promoter) and 3) antisense expression plasmid (driven by ecdysone promoter).

[10] = target: sAC as co-expressed with mammalian CAP; assay: cell-based or functional assay
sAC [11] = target: T5, sAC (Rattus norvegicus, UniProt Q9Z286); assay: Co-expression of mammalian CAP with sAC
T5 construct: expressed in transfected cells
T5 sequence (Q9Z286 whole entry): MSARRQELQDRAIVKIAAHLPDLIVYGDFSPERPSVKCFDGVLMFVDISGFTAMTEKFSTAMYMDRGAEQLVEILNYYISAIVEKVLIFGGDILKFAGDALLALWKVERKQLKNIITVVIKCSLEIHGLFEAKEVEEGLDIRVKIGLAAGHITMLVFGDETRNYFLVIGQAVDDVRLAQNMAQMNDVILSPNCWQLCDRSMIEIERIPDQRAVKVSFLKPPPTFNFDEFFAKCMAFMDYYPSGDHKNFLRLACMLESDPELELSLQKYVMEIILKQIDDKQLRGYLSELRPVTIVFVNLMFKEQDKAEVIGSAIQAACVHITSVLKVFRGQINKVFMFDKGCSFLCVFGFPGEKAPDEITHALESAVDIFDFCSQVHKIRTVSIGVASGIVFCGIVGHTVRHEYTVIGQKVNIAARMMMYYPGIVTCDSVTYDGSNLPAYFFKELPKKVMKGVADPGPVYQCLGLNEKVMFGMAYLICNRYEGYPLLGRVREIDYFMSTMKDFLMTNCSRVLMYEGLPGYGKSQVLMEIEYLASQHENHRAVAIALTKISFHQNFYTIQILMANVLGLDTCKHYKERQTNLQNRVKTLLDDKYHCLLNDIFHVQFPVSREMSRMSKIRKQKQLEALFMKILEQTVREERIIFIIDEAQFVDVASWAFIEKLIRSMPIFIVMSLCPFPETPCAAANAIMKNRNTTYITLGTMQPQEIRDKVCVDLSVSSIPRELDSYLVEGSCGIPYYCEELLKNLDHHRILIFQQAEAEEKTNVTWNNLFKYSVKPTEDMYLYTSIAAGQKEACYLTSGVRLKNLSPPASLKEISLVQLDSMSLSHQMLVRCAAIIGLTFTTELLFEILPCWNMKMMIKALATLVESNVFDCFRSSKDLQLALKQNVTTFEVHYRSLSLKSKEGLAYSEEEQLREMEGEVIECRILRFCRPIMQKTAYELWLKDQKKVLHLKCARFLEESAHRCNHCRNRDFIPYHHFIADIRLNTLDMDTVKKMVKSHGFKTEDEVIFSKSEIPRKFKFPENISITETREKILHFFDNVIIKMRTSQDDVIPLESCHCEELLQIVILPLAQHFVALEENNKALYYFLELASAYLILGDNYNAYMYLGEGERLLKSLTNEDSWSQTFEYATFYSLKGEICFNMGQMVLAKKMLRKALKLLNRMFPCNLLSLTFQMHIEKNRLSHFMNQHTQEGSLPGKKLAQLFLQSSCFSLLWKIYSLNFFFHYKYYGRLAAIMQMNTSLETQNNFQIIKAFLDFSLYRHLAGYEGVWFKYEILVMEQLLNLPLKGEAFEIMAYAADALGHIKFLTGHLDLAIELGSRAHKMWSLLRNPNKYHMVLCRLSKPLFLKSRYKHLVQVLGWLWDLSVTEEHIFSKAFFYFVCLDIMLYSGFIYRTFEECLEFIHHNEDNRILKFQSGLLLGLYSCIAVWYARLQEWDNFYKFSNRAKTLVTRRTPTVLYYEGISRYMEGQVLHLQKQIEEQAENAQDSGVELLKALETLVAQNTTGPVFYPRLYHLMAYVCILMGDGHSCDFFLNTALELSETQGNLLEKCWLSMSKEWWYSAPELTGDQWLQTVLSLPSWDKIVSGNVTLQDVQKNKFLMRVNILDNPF

T2 sequence (O32393 1-1202): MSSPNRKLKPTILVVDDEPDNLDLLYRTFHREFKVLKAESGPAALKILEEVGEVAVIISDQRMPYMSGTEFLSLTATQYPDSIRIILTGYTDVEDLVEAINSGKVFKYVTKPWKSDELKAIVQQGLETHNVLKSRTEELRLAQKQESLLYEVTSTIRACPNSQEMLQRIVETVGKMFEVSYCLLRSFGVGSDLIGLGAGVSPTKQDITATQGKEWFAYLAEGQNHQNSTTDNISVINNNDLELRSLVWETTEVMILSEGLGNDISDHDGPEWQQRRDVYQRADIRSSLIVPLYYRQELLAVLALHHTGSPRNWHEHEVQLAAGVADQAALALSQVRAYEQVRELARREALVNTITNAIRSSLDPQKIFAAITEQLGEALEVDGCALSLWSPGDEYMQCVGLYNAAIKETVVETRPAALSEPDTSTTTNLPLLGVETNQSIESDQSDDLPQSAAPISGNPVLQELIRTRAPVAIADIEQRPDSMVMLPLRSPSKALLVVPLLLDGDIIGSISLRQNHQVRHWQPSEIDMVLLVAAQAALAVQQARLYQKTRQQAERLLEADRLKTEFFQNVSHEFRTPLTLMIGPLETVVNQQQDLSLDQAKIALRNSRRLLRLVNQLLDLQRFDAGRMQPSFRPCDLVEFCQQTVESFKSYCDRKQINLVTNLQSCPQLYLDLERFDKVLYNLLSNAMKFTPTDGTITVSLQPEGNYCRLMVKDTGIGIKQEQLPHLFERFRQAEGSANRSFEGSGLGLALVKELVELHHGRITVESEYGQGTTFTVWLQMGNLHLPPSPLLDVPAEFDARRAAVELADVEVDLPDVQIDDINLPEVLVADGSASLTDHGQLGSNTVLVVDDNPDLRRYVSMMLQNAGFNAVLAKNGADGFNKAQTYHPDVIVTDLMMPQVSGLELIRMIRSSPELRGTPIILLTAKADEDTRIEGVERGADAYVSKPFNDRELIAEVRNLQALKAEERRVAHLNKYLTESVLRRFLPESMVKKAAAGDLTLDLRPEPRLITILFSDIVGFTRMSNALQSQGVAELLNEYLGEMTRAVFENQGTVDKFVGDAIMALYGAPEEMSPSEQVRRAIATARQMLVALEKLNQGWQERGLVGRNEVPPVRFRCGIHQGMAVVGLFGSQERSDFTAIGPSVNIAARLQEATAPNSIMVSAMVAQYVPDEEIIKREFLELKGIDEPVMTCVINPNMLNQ
sACfl, sequence (Q9Z286 whole entry): as the sequence (Q9Z286 whole entry) above
T3 sequence (Q9Z286 whole entry, the tested form may be a part): as the sequence (Q9Z286 whole entry) above

Molecule: O=S([O-])O.[Na+] [NaHSO3]
- % Basal (adenylyl cyclase activity relative to activity in the absence of any salts) [1]: 138 ± 4.6%

Molecule: N[C@@H](Cc1ccc(O)c(O)c1)C(=O)O [L-dopa]
- Potency of sAC inhibition relative to catechol estrogens (fold less potent) (soluble adenylyl cyclase): 1,000 fold

Molecule: O=C(O)O [NaHCO3]
- EC50 [1]: 25.4 ± 7.6 mM
- Fold stimulation of purified enzyme ([1]; 0-80 mM NaHCO3, 10 mM ATP, 40 mM MgCl2): greater than seven-fold
- % Basal (adenylyl cyclase activity relative to activity in the absence of any salts) [1]: 411 ± 5.3%
- Effect on immunoprecipitated AC activity (sAC [2]): stimulated
- Adenylyl cyclase activity in cellular lysates from HEK293/sACfl (sACfl; 50 mM NaHCO3): stimulated
- Cellular cAMP accumulation in HEK293/sACfl (sACfl; after 24 hours bicarbonate starvation): stimulated cAMP accumulation
- Cellular cAMP accumulation in HEK293/V [3]: not in vector transfected HEK293 cells
- Cellular cAMP accumulation in HEK293/V ([3]; listed as bicarbonate): unaffected
- tmAC activity submaximally stimulated by forskolin ([3]; with forskolin): insensitive
- Fold stimulation of CyaC AC activity (Spirulina platensis CyaC [4]): 2.5 fold
- EC50 (Spirulina platensis CyaC [5]): 18.8 ± 1.6 mM

Molecule: NC[C@H](O)c1ccc(O)c(O)c1 [norepinephrine]
- Potency of sAC inhibition relative to catechol estrogens (fold less potent) (soluble adenylyl cyclase): 1,000 fold

- Response of heterologously expressed sAC to stimulators of tmAC activity [6]: completely insensitive
Molecule: Nc1nc2c(ncn2[C@@H]2O[C@H](COP(=O)(O)OP(=O)(O)OP(O)(O)=S)[C@@H](O)[C@H]2O)c(=O)[nH]1 [GTPγS]

Molecule: [Cl-].[Na+] [NaCl]
- % Basal (adenylyl cyclase activity relative to activity in the absence of any salts) [1]: 93 ± 11.8%

Molecule: Nc1ncnc2c1ncn2[C@@H]1O[C@H](COP(=O)(O)OP(=O)(O)OP(=O)(O)O)[C@@H](O)[C@H]1O [ATP]
- Km (sAC [7]): ~1 mM
- Km (tmACs): ~100 µM
- Km (sAC [8]): 1.2 mM

- Sensitivity of sAC to P site ligand (truncated form of sAC): insensitivity
Molecule: Nc1ncnc2c1ncn2[C@H]1CC[C@@H](CO)O1 [2′,3′-dideoxyadenosine]

- % Basal (adenylyl cyclase activity relative to activity in the absence of any salts) [1]: 66 ± 4.6%
Molecule: O=S(=O)([O-])[O-].[Na+].[Na+] [Na2SO4]

Molecule: O=C([O-])O.[K+] [KHCO3]
- % Basal (adenylyl cyclase activity relative to activity in the absence of any salts) [1]: 412 ± 6.1%

Molecule: NCCc1ccc(O)c(O)c1 [dopamine]
- Potency of sAC inhibition relative to catechol estrogens (fold less potent) (soluble adenylyl cyclase): 1,000 fold

Molecule: O=S([O-])[O-].[Na+].[Na+] [Na2SO3]
- % Basal (adenylyl cyclase activity relative to activity in the absence of any salts) [1]: 164 ± 2.9%

Molecule: CC(C)CC[C@@H](O)[C@](C)(O)[C@H]1CC[C@@]2(O)C3=CC(=O)[C@@H]4C[C@@H](O)[C@@H](O)C[C@]4(C)[C@H]3CC[C@]12C [ponasterone A]
- sAC activity in cells with ecdysone inducible sAC expression (sAC [9]): dependent increase in sAC activity

- % Basal (adenylyl cyclase activity relative to activity in the absence of any salts) [1]: 75 ± 2.6%
Molecule: O=P([O-])([O-])O.[Na+].[Na+] [Na2HPO4]

- sAC activity on co-expression [10]: 4 fold
Molecule: mammalian ortholog of yeast CAP (Cyclase Associated Protein)

- Increase of sAC activity on co-expression (sAC [11]): approximately four-fold
B1: mammalian CAP: mammalian ortholog of yeast Cyclase Associated Protein, co-expressed with sAC (protein, UniProt Q01518 2-475, looked up)
Adenylyl cyclase-associated …: ADMQNLVERLERAVGRLEAVSHTSDMHRGYADSPSKAGAAPYVQAFDSLLAGPVAEYLKISKEIGGDVQKHAEMVHTGLKLERALLVTASQCQQPAENKLSDLLAPISEQIKEVITFREKNRGSKLFNHLSAVSESIQALGWVAMAPKPGPYVKEMNDAAMFYTNRVLKEYKDVDKKHVDWVKAYLSIWTELQAYIKEFHTTGLAWSKTGPVAKELSGLPSGPSAGSCPPPPPPCPPPPPVSTISCSYESASRSSLFAQINQGESITHALKHVSDDMKTHKNPALKAQSGPVRSGPKPFSAPKPQTSPSPKRATKKEPAVLELEGKKWRVENQENVSNLVIEDTELKQVAYIYKCVNTTLQIKGKINSITVDNCKKLGLVFDDVVGIVEIINSKDVKVQVMGKVPTISINKTDGCHAYLSKNSLDCEIVSAKSSEMNVLIPTEGGDFNEFPVPEQFKTLWNGQKLVTTVTEIAG
